Results from patent US20110245249A1, “Heterocyclically Substituted Anilinopyrimidines” (Bayer CropScience AG, priority 2008, published 2011).

How the values were obtained:
[1] = system: Production of DON/acetyl-DON by Fusarium graminearum; assay: microbe, parasite or virus in culture; format: cell-based; conditions: 168 h, 7 days at 28° C., read-out: activity in the inhibition of DON/AcDON
[2] = system: Fusarium proliferatum; assay: Growth of Fusarium proliferatum (OD620) in the fumonisin test; format: cell-based; conditions: for IC50: Fusarium proliferatum, 144 h, read-out: pI50 growth; for pI50 growth: OD620 at the beginning and after 6 days
[3] = logP by HPLC on reversed-phase columns (EEC Directive 79/831 Annex V.A8); format: physicochemical; conditions: for log p [b]: pH 2.7; for log p [c]: pH 7.8
In short: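 Values come from three gradient methods (10% to 95% acetonitrile) on C18 columns following EEC 79/831 Annex V.A8: LC-MS at pH 7.8 (0.001 molar ammonium bicarbonate), LC-MS at pH 2.7 (formic acid 0.1%, also in acetonitrile), and HPLC at pH 2.3 (phosphoric acid 0.1%).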

[4] = system: Production of Fumonisin FB1 by Fusarium proliferatum; assay: Production of Fumonisin FB1 by Fusarium proliferatum; format: cell-based; conditions: FB1 in liquid medium after 6 days at 20° C., HPLC-MS/MS; for IC50: Fusarium proliferatum, 144 h, read-out: pI50 Fum (converted)
[5] = system: Phakopsora pachyrhizi; assay: Phakopsora test (soya beans)/protective; format: in vivo; conditions: protective, active compound concentration 250 ppm, evaluation 1 day after inoculation
Experimental: Phakopsora Test (Soya Beans)/Protective
Evaluation is carried out 1 day after the inoculation.

## Clc1cnc(Nc2cccc(C3OCCO3)c2)nc1NC1CC1 [Example 1, 5-Chloro-N^4-cyclopropyl-N^2-[3-(1,3-dioxolan-2-yl)phenyl]pyrimidine-2,4-diamine]
[1]
  inhibition at 50 µM: > 80%
[2]
  IC50: 398 nM
[3]; pH 2.7, log p [b]
  chromatographic logP: 1.59
[3]; pH 2.7, logP (pH 2.7)
  chromatographic logP: 1.59
[3]; pH 7.8, log p [c]
  chromatographic logP: 2.67
[4]
  IC50: 158 nM

## CC1(c2cccc(Nc3ncc(Cl)c(NC4CC4)n3)c2)OCCO1 [Example 12, 5-Chloro-N^4-cyclopropyl-N^2-[3-(2-methyl-1,3-dioxolan-2-yl)phenyl]pyrimidine-2,4-diamine]
[2]
  IC50: 1580 nM
[3]; pH 2.7, log p [b]
  chromatographic logP: 1.9
[3]; pH 2.7, logP (pH 2.7)
  chromatographic logP: 1.9
[3]; pH 7.8, log p [c]
  chromatographic logP: 3.09
[4]
  IC50: 501 nM

## FC(F)(F)c1cnc(Nc2cccc(C3OCCO3)c2)nc1NC1CC1 [Example 24]
[2]
  pI50 growth: 5.5
[3]
  log p [b]: 3.7
  log p [c]: 3.02
[4]
  pI50 Fum: 6

## CC1(c2ccc(Nc3ncc(Cl)c(NC4CC4)n3)cc2)OCCO1 [Example 27, 5-Chloro-N^4-cyclopropyl-N^2-[4-(2-methyl-1,3-dioxolan-2-yl)phenyl]pyrimidine-2,4-diamine]
[2]
  IC50: 1000 nM
[3]; pH 2.7, log p [b]
  chromatographic logP: 1.84
[3]; pH 2.7, logP (pH 2.7)
  chromatographic logP: 1.84
[3]; pH 7.8, log p [c]
  chromatographic logP: 2.99
[4]
  IC50: 398 nM

## CC(C)(C)C1COC(c2cccc(Nc3ncc(Cl)c(NC4CC4)n3)c2)O1 (stereo not shown) [Example 30]
[2]
  pI50 growth: 5.3
[3]
  log p [c]: 4.34[c]
[4]
  pI50 Fum: 6

## COCC1COC(c2cccc(Nc3ncc(C(F)(F)F)c(NC4CC4)n3)c2)O1 (stereo not shown) [Example 105]
[5]
  efficacy: ≥ 80%
[2]
  pI50 growth: 5.5
[3]; pH 2.3
  log p [a]: 2.26
[3]
  log p [b]: 2.74[b]
  log p [c]: 3.23
